Consider 13 molecules from patent publication US10155802B2, “Locally-active anticoagulants and anti-inflammatory agents” (priority 2011, dated 2018).

Positions of bridges follow the written chain, without caps; N, C: chain ends. Non-standard residues stand in square brackets, D forms with d. Residues, ends and D or L forms follow the SMILES beside them. Chains are numbered I, II in the order given. No end group written: not given here. *: point of attachment. Benzenesulfonyl(4-tBu) = CC(C)(C)c1ccc(S(=O)(=O)*)cc1; Dansyl = CN(C)c1cccc2c(S(=O)(=O)*)cccc12; dTic = O=C(O)[C@H]1Cc2ccccc2CN1; dPip = O=C(O)[C@H]1CCCCN1

Common to all, as to format: biochemical
Test [1] deals with T1, Human α-thrombin (Homo sapiens, UniProt P00734).
T1 construct: Human α-thrombin was purchased from Haemotologic Technologies, Inc., VT, USA; purchased Haemotologic Technologies, Inc., VT, USA
The experiment in a line: Thrombin inhibition constants of monovalent active-site moieties and TWE1 (method not described).

The target of test [2] is T1, Human α-thrombin. The experiment in a line: Inhibition of thrombin-catalyzed hydrolysis of chromogenic substrate S-2366 (inhibition constant Ki). Conditions: Ki.
Test [3] concerns pooled human plasma. Briefly: Activated partial thromboplastin time (APTT) clotting assay. Conditions: 37° C.; concentration for 50% of maximum delay in clotting time; read-out: MTC50 (APTT). Here is the method: (§1) Prothrombin (clotting) time (PT) or activated partial thromboplastin (clotting) time (APTT) assays were carried out at certain concentrations of the thrombin inhibitors of the present invention using pooled human plasma with addition of thromboplastin or activated partial thromboplastin to initiate clotting. The assays employed kits from Biopool International (Ventura, Calif., USA) or from Pacific Haemostasis (Middletown, Va., USA) using the procedures supplied by the manufacturer. Briefly, the stock solution of an inhibitor (with the concentration determined using UV-based OD determination, see Gill 1989) is diluted in a buffer of 20 mM HEPES and 150 mM NaCl at pH 7.4 (HBS) to a final volume of 50 μL, to which is added the reconstituted normal plasma (Product #CMS-176172 from Fisher Scientific) in an equal volume. This solution mixture is equilibrated at 37° C. for 2 minutes before 50 μL of the APTT-10XL solution (CMS-022927) is introduced forcibly to ensure proper mixing. This new mixture was incubated at 37° C. for another 5 minutes, which is followed by the addition of 50 μL of 0.02 M […] (Fisher Scientific CMS-022925) pre-warmed at 37° C. For the prothrombin time (PT) assay, an inhibitor is diluted in HBS to a final volume of 25 μL, to which is added the reconstituted control plasma (Fisher Scientific CMS-176172) in an equal volume. This solution mixture is equilibrated at 37° C. for 5 minutes before addition of 100 μL of the thromboplastin solution (CMS-176099) pre-warmed at 37° C. For APTT assays, inhibitory activities of the peptides are expressed as concentrations needed to achieve 50% of the maximum delay in clotting time (MCT50) as compared to the absence of thrombin inhibitors (Maraganore 1989). For PT assays, inhibitory activities are measured as the concentrations of the peptides that prolong the clotting time by 50% (IC50) of that of the normal control plasma (Maraganore 1990). PT and APTT assays were also carried out using slightly modified experimental procedures. Thus, 50 μL of a control plasma (Pacific Hemostasis) solution was added to 100 μL HBS (20 mM HEPES and 150 mM NaCl at pH 7.4) containing varied concentrations of the peptides of this invention. After incubation at 37° C. for 5 min, the mixture was added to 50 μL of the thromboplastin or activated partial thromboplastin reagent. Clotting of the plasma was monitored by change in absorbance at 420 nm using a SpectraMax™ plate reader.

The subject of test [4] is pooled human plasma. The experiment in a line: Prothrombin time (PT, thromboplastin) clotting assay. Here is the method: as §1
Another test concerns the target thrombin (Homo sapiens, UniProt P00734). The experiment in a line: Fibrinogen clotting assay (concentration needed to double the clotting time = IC50). Here is the method:
The same enzyme kinetic assays were used to determine the inhibitory activities of MH2 and two MH2-derived peptides, MH2-allGS and MH2-GS (Table 4). Clotting assays were carried out to determine the inhibitory activities of the rest of the MH2 peptides by use of the protocols described previously (DiMaio 1990; Taka 2000; Su 2004). The assay employs bovine plasma fibrinogen dissolved at 0.1% in 50 mM Tris-Cl, 100 mM NaCl, 0.1% PEG-8000 at pH 7.6 (i.e. the clotting buffer). In addition to the use of optical densities or ODs (Gill 1989), concentrations of the peptide stock solutions were ranked (and corrected when necessary) by use of quantitative proton NMR spectroscopy (Cavaluzzi 2002). Each assay mixture contained a certain concentration of the peptide, and the reaction was started by the addition of human thrombin to a final concentration of approximately 0.5 nM. Optical absorbance of the assay mixtures was measured at 420 nm using the Spectramax™ plate reader. The onset clotting time was determined as an intersection of the baseline and the tangent line at point of inflection of the clotting curve. The concentration of an MH2 peptide needed to double the clotting time was defined as IC50 (DiMaio 1990) as illustrated in FIG. 4 and summarized in Table 4. The correlation between IC50 values and linker unfolding is similar to that for the BTI series of inhibitors (Table 3). […] (Table 3).

[5] abbreviates: monovalent binding moieties for the active site of thrombin.

On to `CC(C)(C)OC(=O)N[C@H](Cc1ccccc1)C(=O)N1CCC[C@H]1C(=O)N[C@@H](CCCNC(=N)N)C(=O)O` [Boc-dFPR], for which affinity on Human α-thrombin [1] (setting [5]) was put at a Ki of 4380 ± 180 nM.
The same measure, in the same setting: for `N=C(N)NCCC[C@H](NC(=O)[C@@H]1CCCN1C(=O)[C@H](N)Cc1ccccc1)C(=O)O` [H-dFPR] the value was 1570 ± 60 nM.
Consider `CC[C@H](C)[C@H](NC(=O)[C@H](CCC(=O)O)NC(=O)[C@H](CCC(=O)O)NC(=O)[C@H](Cc1ccccc1)NC(=O)[C@H](CC(=O)O)NC(=O)CNC(=O)[C@H](CCC(=O)O)NC(=O)[C@@H](NC(=O)[C@H](Cc1c[nH]c2ccccc12)NC(=O)[C@@H](NC(=O)[C@H](Cc1c[nH]c2ccccc12)NC(=O)[C@@H](NC(=O)[C@H](CCCCN)NC(=O)[C@@H](NC(=O)[C@H](C)NC(=O)[C@H](CC(=O)O)NC(=O)[C@H](CC(=O)O)NC(=O)[C@H](Cc1c[nH]c2ccccc12)NC(=O)[C@@H](NC(=O)[C@H](Cc1c[nH]c2ccccc12)NC(=O)[C@H](CCC(=O)O)NC(=O)CNC(=O)[C@H](CC(=O)O)NC(=O)[C@@H](NC(=O)[C@H](Cc1ccccc1)NC(=O)[C@H](CCCNC(=N)N)NC(=O)[C@@H]1CCCN1)[C@@H](C)O)[C@@H](C)O)[C@@H](C)O)[C@@H](C)O)[C@@H](C)O)[C@@H](C)O)C(=O)N1CCC[C@H]1C(=O)N[C@@H](CCC(=O)O)C(=O)N[C@@H](CCC(=O)O)C(=O)N[C@@H](Cc1ccc(O)cc1)C(=O)N[C@@H](CC(C)C)C(=O)N[C@@H](CCC(N)=O)C(=O)O` [BRI-T109], for which the Ki at Human α-thrombin [2] (FIG. 14A) is 1450 nM.
As to `CC[C@H](C)[C@H](N)C(=O)N[C@@H](CCCNC(=N)N)C(=O)N[C@@H](Cc1ccccc1)C(=O)N[C@H](C(=O)N[C@@H](CC(=O)O)C(=O)NCC(=O)N[C@@H](CCC(=O)O)C(=O)N[C@@H](Cc1c[nH]c2ccccc12)C(=O)N[C@H](C(=O)N[C@@H](Cc1c[nH]c2ccccc12)C(=O)N[C@@H](CC(=O)O)C(=O)N[C@@H](CC(=O)O)C(=O)N[C@@H](C)C(=O)N[C@H](C(=O)N[C@@H](CCCCN)C(=O)N[C@H](C(=O)N[C@@H](Cc1c[nH]c2ccccc12)C(=O)N[C@H](C(=O)N[C@H](C(=O)N[C@H](C(=O)N[C@@H](CCC(=O)O)C(=O)NCC(=O)N[C@@H](CC(=O)O)C(=O)N[C@@H](Cc1ccccc1)C(=O)N[C@@H](CCC(=O)O)C(=O)N[C@@H](CCC(=O)O)C(=O)N[C@H](C(=O)N1CCC[C@H]1C(=O)N[C@@H](CCC(=O)O)C(=O)N[C@@H](CCC(=O)O)C(=O)N[C@@H](Cc1ccc(O)cc1)C(=O)N[C@@H](CC(C)C)C(=O)N[C@@H](CCC(N)=O)C(=O)O)[C@@H](C)CC)[C@@H](C)O)C(C)C)[C@@H](C)O)[C@@H](C)O)[C@@H](C)O)[C@@H](C)O)[C@@H](C)O` [MH2-wZIP6], the EC50 in the test on pooled human plasma [3] came to 3000 nM. The “concentrations required in PT-APTT curves relative to MH2-GS” value in the test on pooled human plasma [4] is “about 2.5 times”. The IC50 is less than 400 nM with pooled human plasma [4] (37° C., concentration that prolongs clotting time by 50%) and 53 nM on thrombin (IC50 (anti-clotting), T = 37° C.).
In the case of “variant of BTI1: disulfide-bond linkage between Bbs-Arg-(D-Pip)-Gly-Cys and 15N-labelled Cys-(GS)8-GDFEEIPEEYLQ (peptide 1 {Benzenesulfonyl(4-tBu)}-R[dPip]GC; peptide 2 CGSGSGSGSGSGSGSGSGDFEEIPEEYLQ; disulfide I:4-II:1; also: chain 2 15N-labelled) [TWE1]”, in the test with Human α-thrombin [1] (bivalent inhibitor TWE1), the Ki turned out to be 2.2 ± 0.4 nM.
`CC[C@H](C)[C@H](N)C(=O)N[C@@H](CCCNC(=N)N)C(=O)N[C@@H](Cc1ccccc1)C(=O)N[C@H](C(=O)N[C@@H](CC(=O)O)C(=O)NCC(=O)N[C@@H](CCC(=O)O)C(=O)NCC(=O)N[C@H](C(=O)N1CCC[C@H]1C(=O)N[C@@H](CC(N)=O)C(=O)N1CCC[C@H]1C(=O)N[C@@H](CCC(=O)O)C(=O)N[C@@H](CO)C(=O)N[C@@H](Cc1c[nH]cn1)C(=O)N[C@@H](CC(N)=O)C(=O)N[C@@H](CC(N)=O)C(=O)NCC(=O)N[C@@H](CC(=O)O)C(=O)N[C@@H](Cc1ccccc1)C(=O)N[C@@H](CCC(=O)O)C(=O)N[C@@H](CCC(=O)O)C(=O)N[C@H](C(=O)N1CCC[C@H]1C(=O)N[C@@H](CCC(=O)O)C(=O)N[C@@H](CCC(=O)O)C(=O)N[C@@H](Cc1ccc(O)cc1)C(=O)N[C@@H](CC(C)C)C(=O)N[C@@H](CCC(N)=O)C(=O)O)[C@@H](C)CC)[C@@H](C)O)[C@@H](C)O` [MH2] had a concentration for half-maximal inhibition (IC50) against thrombin (IC50, printed inside the sequence cell of Table 1, temperature not stated) of roughly 14 nM.
The molecule `CN(C)c1cccc2c(S(=O)(=O)N[C@@H](CCCNC(=N)N)C(=O)N3Cc4ccccc4C[C@@H]3C(N)=O)cccc12` [Dansyl-R-(d-Tic)-NH2] (Dansyl-Arg-[dTic]-NH2) returned an inhibition constant (Ki) on Human α-thrombin [1] (setting [5]) of 860 ± 60 nM.
Same read-out and setting: for `CC(C)(C)c1ccc(S(=O)(=O)N[C@@H](CCCNC(=N)N)C(=O)N2CCCC[C@@H]2C(=O)NCC(N)=O)cc1` [Bbs-R-(d-Pip)-G-NH2] the value was 2260 ± 100 nM.
Turning to `CC[C@H](C)[C@H](NC(=O)[C@H](CCC(=O)O)NC(=O)[C@H](CCC(=O)O)NC(=O)[C@H](Cc1ccccc1)NC(=O)[C@H](CC(=O)O)NC(=O)CNC(=O)[C@H](CCC(=O)O)NC(=O)[C@@H](NC(=O)[C@H](Cc1c[nH]c2ccccc12)NC(=O)[C@@H](NC(=O)[C@H](Cc1c[nH]c2ccccc12)NC(=O)[C@@H](NC(=O)[C@H](CCCCN)NC(=O)[C@@H](NC(=O)[C@H](C)NC(=O)[C@H](CC(=O)O)NC(=O)[C@H](CC(=O)O)NC(=O)[C@H](Cc1c[nH]c2ccccc12)NC(=O)[C@@H](NC(=O)[C@H](Cc1c[nH]c2ccccc12)NC(=O)[C@H](CCC(=O)O)NC(=O)CNC(=O)[C@H](CC(=O)O)NC(=O)[C@@H](NC(=O)[C@H](Cc1ccccc1)NC(=O)[C@H](CCCNC(=N)N)NC(=O)[C@@H]1CCCN1C(=O)[C@H](CCCNC(=N)N)NC(=O)[C@@H]1CCCN1C(=O)[C@H](CCC(N)=O)NC(=O)[C@@H](N)Cc1ccccc1)[C@@H](C)O)[C@@H](C)O)[C@@H](C)O)[C@@H](C)O)[C@@H](C)O)[C@@H](C)O)C(=O)N1CCC[C@H]1C(=O)N[C@@H](CCC(=O)O)C(=O)N[C@@H](CCC(=O)O)C(=O)N[C@@H](Cc1ccc(O)cc1)C(=O)N[C@@H](CC(C)C)C(=O)O` [BRI-T207], the Ki at Human α-thrombin [2] (T = 37° C., enzyme kinetics, chromogenic substrate) was roughly 400 nM.
For `CC(=O)N[C@H](Cc1ccccc1)C(=O)N1CCC[C@H]1C(=O)N[C@@H](CCCNC(=N)N)C(=O)O` [Ac-dFPR], affinity at Human α-thrombin [1] (setting [5]) was put at a Ki of 170000 ± 18000 nM.
On the same count and under the same terms, under `CN(C)c1cccc2c(S(=O)(=O)N[C@@H](CCCNC(=N)N)C(=O)N3CCCC[C@@H]3C(N)=O)cccc12` [Dansyl-R-(d-Pip)-NH2] (Dansyl-Arg-[dPip]-NH2) stands 370 ± 40 nM; under `CC(C)(C)c1ccc(S(=O)(=O)N[C@@H](CCCNC(=N)N)C(=O)N2CCCC[C@@H]2C(=O)N[C@@H](Cc2c[nH]c3ccccc23)C(N)=O)cc1` [Bbs-R-(d-Pip)-W-NH2], 6000 ± 1000 nM.
The same measure, in the same setting: under `CC(C)(C)c1ccc(S(=O)(=O)N[C@@H](CCCNC(=N)N)C(=O)N2CCCC[C@@H]2C(N)=O)cc1` [Bbs-R-(d-Pip)-NH2] stands 1130 ± 30 nM.
